The values that follow come from ChEMBL document CHEMBL1201862, “PubChem BioAssay data set” (2004).

The AC50 is the midpoint of the concentration-response curve, whichever way the signal moves. The EC50 is the concentration giving half of the maximal effect.

The target of data set [1] is Cytochrome P450 2C19 (Homo sapiens, UniProt P33261). In words: Cytochrome panel assay with activity outcomes. Panel member name: p450-cyp2c19 Compounds with AC50 equal or less than 10 uM are considered active. It is filed as functional.
Sequence of Cytochrome P450 2C19 (P33261 whole entry): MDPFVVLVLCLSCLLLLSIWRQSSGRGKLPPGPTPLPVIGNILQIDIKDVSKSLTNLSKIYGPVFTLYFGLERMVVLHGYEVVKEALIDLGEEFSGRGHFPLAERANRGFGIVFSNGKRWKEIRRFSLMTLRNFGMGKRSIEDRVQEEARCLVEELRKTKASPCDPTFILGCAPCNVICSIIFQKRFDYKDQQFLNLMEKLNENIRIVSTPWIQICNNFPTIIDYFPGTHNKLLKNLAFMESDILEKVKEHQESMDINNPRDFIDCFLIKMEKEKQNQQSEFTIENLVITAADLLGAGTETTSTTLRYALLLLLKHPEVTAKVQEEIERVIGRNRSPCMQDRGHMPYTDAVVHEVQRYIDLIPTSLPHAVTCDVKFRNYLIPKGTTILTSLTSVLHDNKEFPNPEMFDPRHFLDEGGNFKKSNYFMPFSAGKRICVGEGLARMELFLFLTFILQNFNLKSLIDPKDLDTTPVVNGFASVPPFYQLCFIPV
The target in data set [2] is T1, Cytochrome P450 1A2 (Homo sapiens, UniProt P05177).
T1 sequence (P05177 whole entry): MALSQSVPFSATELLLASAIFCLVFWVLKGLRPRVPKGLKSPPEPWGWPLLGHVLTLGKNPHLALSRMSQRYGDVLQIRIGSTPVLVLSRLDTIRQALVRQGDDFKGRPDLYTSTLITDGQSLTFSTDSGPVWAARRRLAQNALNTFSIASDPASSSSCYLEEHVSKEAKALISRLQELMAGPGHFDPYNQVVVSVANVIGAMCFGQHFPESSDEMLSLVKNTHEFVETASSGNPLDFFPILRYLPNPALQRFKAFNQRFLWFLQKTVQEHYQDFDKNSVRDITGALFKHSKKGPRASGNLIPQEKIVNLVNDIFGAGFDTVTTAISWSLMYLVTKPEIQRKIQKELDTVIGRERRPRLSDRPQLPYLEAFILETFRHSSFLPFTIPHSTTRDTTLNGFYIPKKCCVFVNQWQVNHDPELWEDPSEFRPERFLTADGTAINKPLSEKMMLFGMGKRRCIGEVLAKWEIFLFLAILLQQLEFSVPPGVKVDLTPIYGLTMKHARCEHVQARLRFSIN

Data set [3] deals with Cytochrome P450 2C9 (Homo sapiens, UniProt P11712).
Sequence of Cytochrome P450 2C9 (P11712 whole entry): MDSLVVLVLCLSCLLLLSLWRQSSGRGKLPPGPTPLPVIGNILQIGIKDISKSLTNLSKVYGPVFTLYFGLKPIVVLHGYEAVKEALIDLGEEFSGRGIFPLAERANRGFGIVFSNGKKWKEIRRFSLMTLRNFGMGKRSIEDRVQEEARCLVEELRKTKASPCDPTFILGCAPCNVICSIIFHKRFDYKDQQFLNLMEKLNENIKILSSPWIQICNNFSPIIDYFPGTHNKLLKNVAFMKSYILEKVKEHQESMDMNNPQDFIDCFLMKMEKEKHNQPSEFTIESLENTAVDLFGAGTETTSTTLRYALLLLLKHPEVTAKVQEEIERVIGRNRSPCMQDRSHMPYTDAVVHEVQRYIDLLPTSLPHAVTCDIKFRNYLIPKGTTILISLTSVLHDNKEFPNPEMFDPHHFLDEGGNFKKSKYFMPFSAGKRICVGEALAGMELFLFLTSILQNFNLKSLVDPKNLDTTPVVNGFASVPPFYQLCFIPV
The target of data set [4] is Cytochrome P450 3A4 (Homo sapiens, UniProt P08684).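 Further: CYP3A4 tested as one member of a cytochrome P450 panel screen.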
Sequence of Cytochrome P450 3A4 (P08684 whole entry): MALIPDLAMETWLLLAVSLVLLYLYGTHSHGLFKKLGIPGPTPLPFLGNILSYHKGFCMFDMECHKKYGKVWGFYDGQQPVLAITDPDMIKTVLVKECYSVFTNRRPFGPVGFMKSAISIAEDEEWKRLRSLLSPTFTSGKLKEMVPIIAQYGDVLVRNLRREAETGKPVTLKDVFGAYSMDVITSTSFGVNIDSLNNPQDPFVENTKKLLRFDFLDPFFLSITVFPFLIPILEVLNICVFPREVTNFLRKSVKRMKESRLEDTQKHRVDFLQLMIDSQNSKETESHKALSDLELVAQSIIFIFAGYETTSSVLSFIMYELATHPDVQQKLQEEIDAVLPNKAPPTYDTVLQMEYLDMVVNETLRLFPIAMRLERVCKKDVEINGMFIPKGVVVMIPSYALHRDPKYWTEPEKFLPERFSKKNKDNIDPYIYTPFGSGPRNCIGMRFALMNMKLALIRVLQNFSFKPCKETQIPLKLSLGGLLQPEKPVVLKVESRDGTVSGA
Data set [5] is described as follows: NIH3T3 cell viability loss – ATP luminescence, mouse fibroblasts, counter-screen, dose response (AID 2010).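 Further: cells exposed to compound for about 90 hours before reading.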 It is filed as functional, cell-based. Background: Counterscreens check selectivity or assay interference.
Data set [6] can be described thus: Trypanosoma cruzi growth suppression in host cells – NIH3T3 host cells, beta-gal luminescence, confirmation (AID 2044).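 Further: intracellular parasites grown in NIH/3T3 mouse fibroblasts as host cells; luminescent beta-galactosidase reporter signal from transgenic T. cruzi replicating inside host cells; inhibitors lower the luminescence signal.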 The data set is classed as functional, cell-based.

Each structure is given as a SMILES string. The source made the active and inactive calls.

As for `COCC1C2CC[C@H]3C(OCc4ccc(F)cc4C(F)(F)F)OC[C@]4(C)[C@H]3C2=C(CN4C(=O)OC(C)(C)C)[C@H](C)C1COC` (some centres undefined), the half-maximal activity concentration (AC50) in data set [1] (read-out: AC50) was 39.8 µM (inconclusive); in data set [2] it was 31.6 µM (inconclusive); in data set [3], 20 µM (inconclusive).

With `Cn1cc(-c2nc3cnc(Oc4ccccc4)nc3n(CCC#N)c2=O)c2ccccc21`, the AC50 in data set [2] is 3.16 µM (inconclusive); in data set [4] it was 7.94 µM (inconclusive).

Turning to `Cc1c(Br)c([N+](=O)[O-])nn1C(C)C(=O)Nc1nccs1` (centres undefined), the AC50 in data set [2] is 22.4 µM (inconclusive).

Regarding `CCc1c(C)nc2c(-c3ccccc3)c(C)nn2c1Nc1ccc(NC(C)=O)cc1`, the EC50 in data set [5] is > 60 µM (not active); in data set [6], 1.29 µM (active).

As for `COCCNC(=O)c1onc(CSc2ccccc2F)c1C(=O)O`, the AC50 in data set [1] (read-out: AC50) was 0.141 µM (inconclusive); in data set [4], 35.5 µM (inconclusive).

On to `O=c1c(-c2ccc(Cl)cc2)nc2cncnc2n1Cc1ccccc1Cl`, for which the values for the AC50 in data set [2] and in data set [4] were 1.26 µM (inconclusive) and 12.6 µM (inconclusive), respectively.

`Oc1ccc2c3c1O[C@H]1c4c(c5ccccc5n4Cc4ccccc4)C[C@]4(O)[C@H](C2)N(CC2CC2)CC[C@@]314`: the AC50 in data set [2] is 31.6 µM (inconclusive).

With `COc1cc2nncc(SCc3ccc(Cl)c(Cl)c3)c2cc1OC`, the values for the AC50 in data set [2] and in data set [4] were 0.794 µM (inconclusive) and 2 µM (inconclusive), respectively.

On to `CN1CCN(C(=O)COc2ccc(S(=O)(=O)N(C)Cc3ccccc3)cc2)CC1`, for which the EC50 in data set [5] is > 60 µM (not active); in data set [6] it was 0.189 µM (active).

Regarding `Clc1ccccc1OCCCCn1ccnc1`, the EC50 in data set [5] was > 60 µM (not active); in data set [6], 2.05 µM (active).

Turning to `O=C(O)COc1ccc(-c2nccc(-c3cccs3)n2)cc1`, the results for the AC50 in data set [1] (read-out: AC50) and in data set [2] were 31.6 µM (inconclusive) and 15.8 µM (inconclusive), respectively.

Regarding `N=C(N)SCc1ccc(Cl)cc1Cl.O=[N+]([O-])c1c(O)c(Cl)cc(Cl)c1Cl`, the AC50 in data set [3] is 7.94 µM (inconclusive).

With `COc1cccc2cc3c(=O)oc4ccccc4c3nc12`, in data set [3], the AC50 is 2.82 µM (inconclusive).

As to `CCC(=O)Nc1cccc(NC(=O)CSc2nnnn2Cc2ccccc2)c1`, the AC50 is 5.01 µM (inconclusive) in data set [3] and 3.55 µM (inconclusive) in data set [4].

Take `CCOC(=O)Cn1cc(C(=O)c2ccccc2F)c2ccccc21`: in data set [4], the AC50 is 35.5 µM (inconclusive).

For `COc1ccc(C2NC(=O)c3sc4nc(C)c(C(C)=O)c(-c5ccc(Cl)cc5)c4c3N2)cc1` (centres undefined), the AC50 in data set [1] (read-out: AC50) is 2 µM (inconclusive).

Consider `O=C(Nc1ccccc1)N1CC2(CCN(C(=O)c3ccncc3)CC2)C1`, for which the AC50 in data set [2] was 10 µM (inconclusive); in data set [4] it was 25.1 µM (inconclusive).

As to `FC(F)(F)c1ccccc1-c1ccc2ncnc(NCc3cccs3)c2c1`, the AC50 in data set [3] was 1 µM (inconclusive).

For the molecule `CC[n+]1ccccc1C=Cc1ccc(N(C)C)cc1`, the EC50 in data set [5] was > 60 µM (not active); in data set [6] it was 0.572 µM (active).

On to `CC(C)C12CN3CC(C(C)C)(CN(C1)C3c1cccnc1)C2=O` (centres undefined), for which the AC50 was 25.1 µM (inconclusive) in data set [2] and 3.16 µM (inconclusive) in data set [3].

As for `O=C(O)C1=CCCN(CCOC(c2ccc(C(F)(F)F)cc2)c2ccc(C(F)(F)F)cc2)C1`, the AC50 in data set [4] is 39.8 µM (inconclusive).

Take `CCN1CCC[C@@H](OC(=O)C(c2ccccc2)c2ccccc2)C1` [PIPERIDOLATE]: the AC50 in data set [2] was 0.00126 µM (inconclusive).

Regarding `O=C(Nc1cc(C(F)(F)F)ccc1-n1cncn1)c1ccc(-c2ccccc2)cc1`, the EC50 in data set [5] was > 60 µM (not active); in data set [6], 0.489 µM (active).

`CCCN(C/C=C\I)[C@@H]1CCc2ccc(O)cc2C1`: the AC50 in data set [2] and in data set [3] was 25.1 µM (inconclusive) throughout.

With `O=C(O)c1ccccc1N[C@H](c1ccccc1)c1ccc2cccnc2c1O`, the values for the AC50 in data set [2] and in data set [3] were 1.58 µM (inconclusive) and 5.01 µM (inconclusive), respectively.

In the case of `Cc1cnc(CNc2ccnc(-c3ccoc3)n2)cn1`, the AC50 in data set [4] was 25.1 µM (inconclusive).

`O=S(=O)(O)c1cc(/N=[N+](\[O-])c2cc(S(=O)(=O)O)c3ccccc3c2)cc2ccccc12`: the AC50 was 3.98 µM (inconclusive) in data set [1] (read-out: AC50), 1.26 µM (inconclusive) in data set [2] and 7.94 µM (inconclusive) in data set [3].

Turning to `O=C(CSc1nc2ccccc2o1)NC(=O)NCc1ccccc1`, the AC50 in data set [4] is 22.4 µM (inconclusive).

As to `C[C@@]12CC[C@H]3[C@@H](CC[C@@H]4C[C@H](O)CC[C@]43C)[C@H]1CC[C@H]2O`, the AC50 is 31.6 µM (inconclusive) in data set [1] (read-out: AC50), 15.8 µM (inconclusive) in data set [2], 25.1 µM (inconclusive) in data set [3] and 10 µM (inconclusive) in data set [4].

For `O=[N+]([O-])c1ccc(S(=O)(=O)N2CCN(c3ccc(N4CCOCC4)nn3)CC2)cc1`, the EC50 was > 60 µM (not active) in data set [5] and 1.12 µM (active) in data set [6].

On to `O=C(O)c1ccccc1-c1ccccc1C(=O)Nc1ccc2c(c1)Cc1ccccc1-2`, for which the AC50 in data set [3] was 3.16 µM (inconclusive).

Consider `CCOc1cc(/C=N/NC(=O)CNc2cccc(C)c2)ccc1OC(=O)c1ccccc1`, for which the AC50 in data set [2] is 14.1 µM (inconclusive).

As to `COc1cc(/C=C(\C#N)c2nc3ccccc3[nH]2)ccc1Oc1ccc([N+](=O)[O-])cn1`, the EC50 in data set [5] is > 30 µM (not active); in data set [6] it was 1.12 µM (active).

For the molecule `CCc1cc2cc(C)c(C)cc2nc1SCC(=O)NNC(=O)c1ccco1`, the AC50 in data set [2] is 0.794 µM (inconclusive).

As for `O=C(/C=C\NCC(=O)c1ccccc1)c1ccccc1`, in data set [3], the AC50 was 1.78 µM (inconclusive).

As for `COc1ccccc1/C=C/C(=O)NCC(=O)N/N=C/c1ccccc1[N+](=O)[O-]`, the figures for the EC50 in data set [5] and in data set [6] were > 60 µM (not active) and 1.59 µM (active), respectively.

With `Nc1ccccc1/N=N\c1c(S(=O)(=O)O)cc2cc(S(=O)(=O)O)cc(O)c2c1O`, the AC50 in data set [2] is 6.31 µM (inconclusive).

With `COc1ccccc1NC(=O)Cn1nnc(-c2ccccc2NC(=O)c2cc3ccccc3oc2=O)n1`, the AC50 in data set [2] was 15.8 µM (inconclusive); in data set [3], 0.794 µM (inconclusive).

For `N#Cc1cc([N+](=O)[O-])ccc1Oc1cccc(/C=N/NC(=O)c2cccc(Cl)c2)c1`, the EC50 is > 60 µM (inconclusive) in data set [5] and 0.531 µM (active) in data set [6].

Turning to `CCOc1ccc(C(F)(F)F)cc1NC(=O)c1ccc(OC)c([N+](=O)[O-])c1`, the figures for the AC50 in data set [1] (read-out: AC50) and in data set [4] were 0.282 µM (inconclusive) and 22.4 µM (inconclusive), respectively.

For `Cc1ccc(Nc2nc(-c3sc(NC(=O)c4cccc(Cl)c4)nc3C)cs2)cc1`, the figures for the AC50 in data set [2] and in data set [4] were 14.1 µM (inconclusive) and 11.2 µM (inconclusive), respectively.

For `O=c1cnc2cnc(Nc3ccccc3)nc2n1CCc1ccccc1`, the AC50 in data set [3] was 0.251 µM (inconclusive).

In the case of `COc1ccccc1C(=O)Nn1c(C2CCC2)nc2ccccc2c1=O`, the concentration for a half-maximal effect (EC50) was > 30 µM (not active) in data set [5] and 2.13 µM (active) in data set [6].

Take `O=C(Nc1cccc(-c2cn3cccnc3n2)c1)c1ccc(Br)o1`: the EC50 in data set [5] was > 60 µM (not active); in data set [6], 0.554 µM (active).

On to `CC1(C)Cc2ccccc2C(N/N=C/c2cccc(F)c2)=N1`, for which, in data set [1] (read-out: AC50), the AC50 is 25.1 µM (inconclusive).

Take `C[C@@H](C(=O)NCc1cccc2ccccc12)[C@H]1C[C@]1(C)[C@H](NC(=O)OCc1ccccc1)c1ccccc1`: in data set [2], the AC50 was 25.1 µM (inconclusive).

`O=C1OC(OC2CCCCC2)(c2ccccc2)c2ccccc21` (centres undefined): the AC50 in data set [3] and in data set [4] was 15.8 µM (inconclusive) in each case.

Regarding `C=CC[C@@H]1C=C[C@@H](O/N=C\c2ccc(C(=O)N3[C@H](c4ccc(C)cc4)[C@@H](C)CC[C@H]3C(=O)OC)cc2)[C@@H](CO)O1`, the AC50 in data set [1] (read-out: AC50) was 3.16 µM (inconclusive).

Take `CCOc1ncnc2c1oc1nc(CC(C)C)c3c(c12)CC(C)(C)OC3`: the values for the AC50 in data set [1] (read-out: AC50) and in data set [2] were 39.8 µM (inconclusive) and 22.4 µM (inconclusive), respectively.

`Cc1cccc(C)c1NC(=O)C[S+]([O-])CC(=O)Nc1ccc(F)cc1F` (centres undefined): the values for the AC50 in data set [3] and in data set [4] were 39.8 µM (inconclusive) and 14.1 µM (inconclusive), respectively.

On to `COC(=O)[C@@]1(Cc2ccc(F)cc2)[C@H]2c3cc(C(=O)N4CCCC4)n(Cc4ccccc4)c3C[C@H]2CN1C(=O)c1ccccc1`, for which the AC50 in data set [1] (read-out: AC50) is 31.6 µM (inconclusive); in data set [2], 20 µM (inconclusive).

In the case of `Cc1cccc(C)c1NC(=O)COc1cccc(/C=N/NC(=O)C(=O)NCc2ccccc2)c1`, the AC50 result in data set [1] is “inconclusive”.

`NC(=O)Cn1nc([N+](=O)[O-])nc1Oc1ccc(Br)cc1`: the figures for the EC50 in data set [5] and in data set [6] were > 60 µM (not active) and 0.174 µM (active), respectively.
